Data from US20070191333A1, “Antibacterial agents” (Warner Lambert Company LLC, priority 2003, published 2007).
≈ marks a conversion by molar mass, not a printed value. Read-outs that look alike come from different tables or passages of the source.

Legend:
Type in all cases: cell-based
E. faecalis MGH-2 = assay: Antibacterial microtitration MIC, E. faecalis MGH-2; settings: strain MGH-2; for MIC: Enterococcus faecalis, MGH2, Gram Positive Bacteria, read-out: Minimum Inhibitory Concentrations E. faecalis MGH-2
Protocol: (§1) Test A—Antibacterial Assays The compounds of the present invention were tested against an assortment of Gram-negative and Gram-positive organisms using standard microtitration techniques (Cohen et. al., Antimicrob., 1985; 28:766; Heifetz, et. al., Antimicrob., 1974; 6:124).

S. pneumo SV-1 = assay: Antibacterial microtitration MIC, S. pneumo SV-1; settings: Gram Positive Bacteria, strain SV-1; for MIC: read-out: Minimum Inhibitory Concentrations S. pneumo SV-1
Protocol: as §1

S. aureus UC-76 = assay: Antibacterial microtitration MIC, S. aureus UC-76; settings: strain UC-76; for MIC: Staphylococcus aureus, UC76, Gram Positive Bacteria, read-out: Minimum Inhibitory Concentrations S. aureus UC-76
Protocol: as §1

S pyogenes C203 = assay: Antibacterial microtitration MIC, S pyogenes C203; settings: Gram Positive Bacteria, strain C203; for MIC: read-out: Minimum Inhibitory Concentrations S pyogenes C203
Protocol: as §1

H. influenzae HI-3542 = assay: Antibacterial microtitration MIC, H. influenzae HI-3542; settings: strain HI-3542; for MIC: Haemophilus influenzae, HI3542, Gram Negative Bacteria, read-out: Minimum Inhibitory Concentrations H. influenzae HI-3542
Protocol: as §1

M. catarrhalis BC-3531 = assay: Antibacterial microtitration MIC, M. catarrhalis BC-3531; settings: strain BC-3531; for MIC: Moraxella catarrhalis, BC3531, Gram Negative Bacteria, read-out: Minimum Inhibitory Concentrations M. catarrhalis BC-3531; for Minimum Inhibitory Concentrations M. catarrhalis BC-3531: Gram Negative Bacteria
Protocol: as §1

E. coli 2026 = assay: Antibacterial microtitration MIC, E. coli 2026; settings: strain 2026; for MIC: read-out: Minimum Inhibitory Concentrations E. coli 2026
Protocol: as §1

[1] = Escherichia coli, Gram Negative Bacteria
[2] = Escherichia coli, 2026, Gram Negative Bacteria

| Structure (SMILES) | MIC (E. faecalis MGH-2) [µg/mL] | MIC (S. pneumo SV-1) [µg/mL] | MIC (S. aureus UC-76) [µg/mL] | MIC (S pyogenes C203) [µg/mL] | MIC (H. influenzae HI-3542) [µg/mL] | MIC (M. catarrhalis BC-3531) [µg/mL] | further results |
| --- | --- | --- | --- | --- | --- | --- | --- |
| COc1c(N2CC[C@@H]([C@H](C)NCCC#N)C2)c(F)cc2c(=O)[nH]c(=O)n(C3CC3)c12 (single isomer, unassigned) [drawing 418] | 2 (≈ 4.81 µM) | 0.25 (≈ 0.602 µM) | 1 (≈ 2.41 µM) | 0.5 (≈ 1.2 µM) |  |  |  |
| Cc1c(N2C[C@@H](CNCCC#N)[C@H](C)C2)c(F)cc2c(=O)n(N)c(=O)n(C3CC3)c12 (stereo in doubt) |  |  |  |  | 2 (≈ 4.83 µM) | 4 (≈ 9.65 µM) | MIC (E. coli 2026; [1]): 8 µg/mL (≈ 19.3 µM) |
| Cc1c(N2C[C@H](CNCCC#N)[C@@H](C)C2)c(F)cc2c(=O)n(N)c(=O)n(C3CC3)c12 (stereo in doubt) |  |  |  |  | 4 (≈ 9.65 µM) | 4 (≈ 9.65 µM) | MIC (E. coli 2026; [1]): 8 µg/mL (≈ 19.3 µM) |
| Cc1c(N2CCC(C(N)CC#N)C2)c(F)cc2c(=O)n(N)c(=O)n(C3CC3)c12 (centres unmarked) [drawing 388] |  |  |  |  | 2 (≈ 5.18 µM) | 0.5 (≈ 1.29 µM) | MIC (E. coli 2026; [2]): 8 µg/mL (≈ 20.7 µM) |
| COc1c(N2CCC(C(N)CC#N)C2)c(F)cc2c(=O)n(N)c(=O)n(C3CC3)c12 (centres unmarked) [drawing 393] |  |  |  |  | 8 (≈ 19.9 µM) | 16 (≈ 39.8 µM) | MIC (E. coli 2026; [2]): 64 µg/mL (≈ 159 µM) |
| COc1c(N2C[C@@H]3CCC(NCCC#N)[C@@H]3C2)c(F)cc2c(=O)n(N)c(=O)n(C3CC3)c12 (some centres unmarked) [drawing 398] |  |  |  |  | 8 (≈ 18.1 µM) | 64 (≈ 145 µM) | MIC (E. coli 2026; [1]): 64 µg/mL (≈ 145 µM) |
| Cc1c(N2CC[C@@H](C(NCCC#N)c3ncco3)C2)c(F)cc2c(=O)n(N)c(=O)n(C3CC3)c12 (some centres unmarked) [drawing 399] |  |  |  |  | 4 (≈ 8.56 µM) | 16 (≈ 34.2 µM) | MIC (E. coli 2026; [1]): 16 µg/mL (≈ 34.2 µM) |
| Cc1c(N2CCC(C(N)C(C)(C)C#N)C2)c(F)cc2c(=O)n(N)c(=O)n(C3CC3)c12 (centres unmarked) [drawing 402] |  |  |  |  | 32 (≈ 77.2 µM) |  | Minimum Inhibitory Concentrations M. catarrhalis BC-3531 (M. catarrhalis BC-3531): 5.25 µg/mL; MIC (E. coli 2026; [2]): 64 µg/mL (≈ 154 µM) |
| Cc1c(N2CCC(C(N)C(C)(C)C#N)C2)c(F)cc2c(=O)n(N)c(=O)n(C3CC3)c12 (centres unmarked) [drawing 403] |  |  |  |  |  |  | Minimum Inhibitory Concentrations H. influenzae HI-3542 (H. influenzae HI-3542; Gram Negative Bacteria): 32 µg/mL; Minimum Inhibitory Concentrations M. catarrhalis BC-3531 (M. catarrhalis BC-3531): 16 µg/mL; Minimum Inhibitory Concentrations E. coli 2026 (E. coli 2026; Gram Negative Bacteria): 64 µg/mL |
| COc1c(N2CC(CNCCC#N)C3(CC3)C2)c(F)cc2c(=O)n(N)c(=O)n(C3CC3)c12 (centres unmarked) [drawing 404] |  |  |  |  | 1 (≈ 2.26 µM) | 8 (≈ 18.1 µM) | MIC (E. coli 2026; [2]): 2 µg/mL (≈ 4.52 µM) |
| COc1c(N2C[C@@H]3CCC(NCCC#N)[C@@H]3C2)c(F)cc2c(=O)n(N)c(=O)n(C3CC3)c12 (some centres unmarked) [drawing 415] | 4 (≈ 9.04 µM) | 0.5 (≈ 1.13 µM) | 1 (≈ 2.26 µM) | 1 (≈ 2.26 µM) |  |  |  |
| Cc1c(N2CC[C@@H](C(NCCC#N)c3ncco3)C2)c(F)cc2c(=O)n(N)c(=O)n(C3CC3)c12 (some centres unmarked) [drawing 416] | 32 (≈ 68.4 µM) | 8 (≈ 17.1 µM) | 8 (≈ 17.1 µM) | 8 (≈ 17.1 µM) |  |  |  |
| Cc1c(N2CCC(C(N)C(C)(C)C#N)C2)c(F)cc2c(=O)n(N)c(=O)n(C3CC3)c12 (centres unmarked) [drawing 419] | 32 (≈ 77.2 µM) |  | 12 (≈ 29 µM) | 32 (≈ 77.2 µM) |  |  | Minimum Inhibitory Concentrations S. pneumo SV-1 (S. pneumo SV-1): 32 µg/mL |
| Cc1c(N2CCC(C(N)C(C)(C)C#N)C2)c(F)cc2c(=O)n(N)c(=O)n(C3CC3)c12 (centres unmarked) [drawing 420] |  |  |  |  |  |  | Minimum Inhibitory Concentrations E. faecalis MGH-2 (E. faecalis MGH-2; Gram Positive Bacteria): 16 µg/mL; Minimum Inhibitory Concentrations S. pneumo SV-1 (S. pneumo SV-1): 8 µg/mL; Minimum Inhibitory Concentrations S. aureus UC-76 (S. aureus UC-76; Gram Positive Bacteria): 8 µg/mL; Minimum Inhibitory Concentrations S pyogenes C203 (S pyogenes C203): 16 µg/mL |

Continued, in another order:

| MIC (E. faecalis MGH-2) [µg/mL] | MIC (S. pneumo SV-1) [µg/mL] | MIC (S. aureus UC-76) [µg/mL] | MIC (S pyogenes C203) [µg/mL] | Structure (SMILES) | MIC (H. influenzae HI-3542) [µg/mL] | MIC (M. catarrhalis BC-3531) [µg/mL] | further results |
| --- | --- | --- | --- | --- | --- | --- | --- |
| 0.5 (≈ 1.29 µM) | 0.125 (≈ 0.323 µM) | 0.25 (≈ 0.647 µM) | 0.125 (≈ 0.323 µM) | Cc1c(N2CCC(C(N)CC#N)C2)c(F)cc2c(=O)n(N)c(=O)n(C3CC3)c12 (centres unmarked) [drawing 405] |  |  |  |
| 2 (≈ 4.97 µM) | 0.5 (≈ 1.24 µM) | 2 (≈ 4.97 µM) | 0.5 (≈ 1.24 µM) | COc1c(N2CCC(C(N)CC#N)C2)c(F)cc2c(=O)n(N)c(=O)n(C3CC3)c12 (centres unmarked) [drawing 410] |  |  |  |
| 1 (≈ 2.26 µM) | 0.06 (≈ 0.136 µM) | 0.25 (≈ 0.565 µM) | 0.06 (≈ 0.136 µM) | COc1c(N2CC(CNCCC#N)C3(CC3)C2)c(F)cc2c(=O)n(N)c(=O)n(C3CC3)c12 (centres unmarked) [drawing 421] |  |  |  |
